According to patent US8518934B2, “Oxycarbamoyl compounds and the use thereof” (Shonogi & Co., Ltd., priority 2008, dated 2013):

Target: T1, N-type calcium channel (NTCC) (Homo sapiens, UniProt Q00975)
T1 construct: endogenous in cells; host or cells: differentiated IMR32 cells (ATCC)
Experiment: FLIPR calcium mobilization assay for N-type calcium channel
Assay type: cell-based
Details: calcium mobilization in vitro assay; differentiated IMR32 cells, 90 mM KCl, 5 μM nitrendipine, Fluo-4
Experimental: Cell maintenance and differentiation. Unless noted otherwise, cell culture reagents were purchased from Mediatech of Herndon, Md. IMR32 cells (American Type Culture Collection, ATCC, Manassas, Va.) were routinely cultured in growth medium consisting of minimum essential medium containing 10% fetal bovine serum (FBS, Hyclone, Logan, Utah), 100 U/mL penicillin, 100 μg/mL streptomycin, 2 mM L-glutamine, 1 mM sodium pyruvate, and 1×MEM non-essential amino acids. 80-90% confluent flasks of cells were differentiated using the following differentiation medium: Growth medium plus 1 mM dibutyryl cyclic AMP (Sigma, St. Louis, Mo.), and 2.5 μM bromodeoxyuridine (Sigma). Cells were differentiated for 8 days by replacing differentiation medium every 2-3 days. A7r5 (ATCC) cells were maintained and routinely cultured in A7r5 growth medium consisting of Dulbecco's Modified Eagles Medium containing 10% FBS, 100 U/mL penicillin, 100 μg/mL streptomycin, 4 mM L-glutamine, and 0.15% sodium bicarbonate. 80-90% confluent flasks of cells were differentiated using the following differentiation medium: A7r5 Growth Medium plus 1 mM dibutyryl cyclic AMP (Sigma). Cells were differentiated for 8 days by replacing differentiation medium every 2-3 days.
Recombinant human embryonal kidney cells (HEK293, ATCC) stably transfected with either N-type calcium channel (NTCC) subunits (α1b, α2δ, and β3) or L-type calcium channel (LTCC) subunits (α1c, α2δ, and β1) were routinely cultured in growth medium consisting of Dulbecco's Modified Eagles Medium containing 10% FBS, 100 U/mL penicillin, 100 μg/mL streptomycin, 4 mM L-glutamine, 500 μg/mL geneticin (G418), 20 μg/mL Blasticidin S (InVivogen, San Diego, Calif.) and 500 μg/mL zeocin (InVivogen). FLIPR Calcium Mobilization Assay for N-type Calcium Channel. One day prior to performing this assay, differentiated IMR32 cells were treated with lx CellStripper, and seeded on poly-D-lysine-coated 96-well clear-bottom black plates (Becton Dickinson, Franklin Lakes, N.J.) at 200,000 cells/well. On the day of the assay, the cell plates were washed with IMR32 buffer (127 mM NaCl, 1 mM KCl, 2 mM MgCl2, 700 μM NaH2PO4, 5 mM CaCl2, 5 mM NaHCO3, 8 mM HEPES, 10 mM glucose, pH 7.4), then pre-stimulated with KCl and loaded as follows: 0.05 mL of IMR32 buffer, 0.05 mL of each compound tested diluted in IMR32 buffer containing 20 μM nitrendipine (Sigma), and 0.1 mL KCl dissolved in IMR32 buffer, plus Fluo-4 were added (3 μM final concentration, Molecular Probes, Eugene, Oreg.). Final test compound concentrations ranged from about 846 pM to about 17 μM, final nitrendipine concentration was 5 μM, and final KCl concentration was 90 mM. After 1 hour, the cells were washed twice with 0.05 mL of each compound tested in nitrendipine-containing IMR32 buffer (no KCl or Fluo-4), and then replaced with 0.1 mL of each compound tested in nitrendipine-containing IMR32 buffer. Plates were then transferred to a Fluorimetric Imaging Plate Reader (FLIPR^96, Molecular Devices, Inc., Sunnyvale, Calif.) for assay. The FLIPR measured basal Fluo-4 fluorescence for 315 seconds (i.e., 5 minutes and 15 seconds), then added 0.1 mL KCl agonist dissolved in IMR32 buffer and measured fluorescence for another 45 seconds. Final test compound concentrations on the cells after FLIPR read ranged from about 846 pM to about 17 μM, final nitrendipine concentration was 5 μM, and final KCl concentration was 90 mM. Data were collected over the entire time course and analyzed using Excel, Graph Pad Prism (version 3.02, Graph Pad, San Diego, Calif.), or an in-house non-linear regression analysis software.

T1 sequence (Q00975 whole entry): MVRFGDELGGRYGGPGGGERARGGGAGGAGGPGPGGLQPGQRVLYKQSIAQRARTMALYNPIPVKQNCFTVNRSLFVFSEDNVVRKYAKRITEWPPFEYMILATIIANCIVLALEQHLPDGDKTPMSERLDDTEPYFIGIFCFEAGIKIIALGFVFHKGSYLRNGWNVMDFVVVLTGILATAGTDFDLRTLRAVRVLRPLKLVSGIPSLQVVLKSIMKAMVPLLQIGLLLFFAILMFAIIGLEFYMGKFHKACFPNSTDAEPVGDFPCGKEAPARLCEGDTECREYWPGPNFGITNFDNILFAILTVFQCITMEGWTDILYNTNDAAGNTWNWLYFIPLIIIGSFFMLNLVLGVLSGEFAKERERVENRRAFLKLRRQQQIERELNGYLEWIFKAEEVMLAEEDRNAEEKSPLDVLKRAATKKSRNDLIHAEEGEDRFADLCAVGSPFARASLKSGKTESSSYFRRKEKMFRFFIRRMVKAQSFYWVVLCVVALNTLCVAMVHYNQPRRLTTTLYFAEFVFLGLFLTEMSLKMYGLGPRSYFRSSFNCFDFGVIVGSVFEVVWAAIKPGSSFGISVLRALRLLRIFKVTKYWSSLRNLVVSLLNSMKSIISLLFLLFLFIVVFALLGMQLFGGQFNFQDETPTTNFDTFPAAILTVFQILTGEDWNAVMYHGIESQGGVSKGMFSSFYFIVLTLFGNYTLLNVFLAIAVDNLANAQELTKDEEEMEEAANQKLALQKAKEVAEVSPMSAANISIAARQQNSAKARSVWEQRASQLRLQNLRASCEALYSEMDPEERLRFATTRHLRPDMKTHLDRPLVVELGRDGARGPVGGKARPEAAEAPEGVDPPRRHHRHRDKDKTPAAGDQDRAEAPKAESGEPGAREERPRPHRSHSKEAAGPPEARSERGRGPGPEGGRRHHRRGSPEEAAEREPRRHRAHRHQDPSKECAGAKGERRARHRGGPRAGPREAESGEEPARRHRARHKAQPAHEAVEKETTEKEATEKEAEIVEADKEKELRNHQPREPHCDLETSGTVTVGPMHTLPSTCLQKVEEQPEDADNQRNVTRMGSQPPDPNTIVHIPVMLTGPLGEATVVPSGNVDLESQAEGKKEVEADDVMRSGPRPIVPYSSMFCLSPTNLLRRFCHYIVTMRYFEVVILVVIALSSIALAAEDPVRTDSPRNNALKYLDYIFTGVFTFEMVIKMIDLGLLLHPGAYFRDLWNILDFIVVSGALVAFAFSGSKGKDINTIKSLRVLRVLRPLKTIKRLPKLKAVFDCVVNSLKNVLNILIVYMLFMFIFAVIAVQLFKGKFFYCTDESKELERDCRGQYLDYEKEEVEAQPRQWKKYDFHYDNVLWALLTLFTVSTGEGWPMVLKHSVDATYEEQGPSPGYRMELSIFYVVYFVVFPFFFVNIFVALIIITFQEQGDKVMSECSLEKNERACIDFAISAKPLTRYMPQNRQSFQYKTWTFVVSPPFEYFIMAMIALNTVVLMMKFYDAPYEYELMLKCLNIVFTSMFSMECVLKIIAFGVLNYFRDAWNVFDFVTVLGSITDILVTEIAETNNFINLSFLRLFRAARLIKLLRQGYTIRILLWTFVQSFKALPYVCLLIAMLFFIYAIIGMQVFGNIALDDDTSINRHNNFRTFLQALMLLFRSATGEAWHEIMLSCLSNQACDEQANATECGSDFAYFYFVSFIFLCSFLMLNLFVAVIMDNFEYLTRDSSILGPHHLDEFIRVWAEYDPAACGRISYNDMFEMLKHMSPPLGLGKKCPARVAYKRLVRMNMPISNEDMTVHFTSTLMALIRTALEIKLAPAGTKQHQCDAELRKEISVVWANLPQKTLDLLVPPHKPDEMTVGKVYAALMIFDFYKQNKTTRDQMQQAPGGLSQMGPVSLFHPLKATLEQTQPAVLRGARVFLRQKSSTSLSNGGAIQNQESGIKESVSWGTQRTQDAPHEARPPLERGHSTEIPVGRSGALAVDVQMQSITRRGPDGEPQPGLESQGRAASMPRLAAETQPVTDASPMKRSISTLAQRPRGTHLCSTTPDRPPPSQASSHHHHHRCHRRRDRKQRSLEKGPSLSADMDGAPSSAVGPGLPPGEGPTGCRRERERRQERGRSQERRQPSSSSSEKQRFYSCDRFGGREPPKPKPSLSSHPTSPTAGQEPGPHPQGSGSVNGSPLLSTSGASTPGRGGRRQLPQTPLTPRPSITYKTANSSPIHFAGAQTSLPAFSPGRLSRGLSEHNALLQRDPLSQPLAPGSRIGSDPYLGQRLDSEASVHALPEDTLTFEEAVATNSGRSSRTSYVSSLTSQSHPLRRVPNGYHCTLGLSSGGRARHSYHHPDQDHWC
T1 sequence (P54289 25-956 partner limits assumed): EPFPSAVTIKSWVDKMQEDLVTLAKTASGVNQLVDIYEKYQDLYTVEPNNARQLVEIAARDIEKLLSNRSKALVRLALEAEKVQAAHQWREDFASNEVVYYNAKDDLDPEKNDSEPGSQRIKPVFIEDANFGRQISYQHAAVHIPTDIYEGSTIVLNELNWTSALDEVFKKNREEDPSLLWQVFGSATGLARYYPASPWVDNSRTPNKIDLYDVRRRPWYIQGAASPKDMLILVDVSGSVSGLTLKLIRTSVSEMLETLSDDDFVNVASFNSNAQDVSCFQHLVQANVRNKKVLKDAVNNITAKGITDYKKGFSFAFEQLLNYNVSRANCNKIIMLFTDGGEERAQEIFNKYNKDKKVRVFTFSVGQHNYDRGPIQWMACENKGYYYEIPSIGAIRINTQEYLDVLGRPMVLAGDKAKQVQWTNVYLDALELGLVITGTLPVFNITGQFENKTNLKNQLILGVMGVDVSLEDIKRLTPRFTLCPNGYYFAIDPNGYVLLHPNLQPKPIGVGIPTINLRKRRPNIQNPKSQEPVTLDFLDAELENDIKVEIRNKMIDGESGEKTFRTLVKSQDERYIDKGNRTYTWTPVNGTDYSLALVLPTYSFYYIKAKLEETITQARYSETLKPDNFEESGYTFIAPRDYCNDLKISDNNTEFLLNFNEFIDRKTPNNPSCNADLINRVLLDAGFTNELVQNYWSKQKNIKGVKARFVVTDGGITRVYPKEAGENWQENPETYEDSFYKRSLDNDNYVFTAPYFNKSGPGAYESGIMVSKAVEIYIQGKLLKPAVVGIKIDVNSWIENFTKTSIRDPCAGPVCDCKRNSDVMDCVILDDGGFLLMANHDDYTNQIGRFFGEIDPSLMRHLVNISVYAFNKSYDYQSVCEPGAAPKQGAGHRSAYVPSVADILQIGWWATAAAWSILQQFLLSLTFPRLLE
T1 sequence (P54289 957-1103 partner limits assumed): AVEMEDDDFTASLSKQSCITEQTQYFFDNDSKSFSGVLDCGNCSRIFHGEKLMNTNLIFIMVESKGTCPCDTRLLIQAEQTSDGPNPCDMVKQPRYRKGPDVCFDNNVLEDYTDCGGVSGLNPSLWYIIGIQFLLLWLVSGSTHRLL
T1 sequence (P54284 whole entry partner): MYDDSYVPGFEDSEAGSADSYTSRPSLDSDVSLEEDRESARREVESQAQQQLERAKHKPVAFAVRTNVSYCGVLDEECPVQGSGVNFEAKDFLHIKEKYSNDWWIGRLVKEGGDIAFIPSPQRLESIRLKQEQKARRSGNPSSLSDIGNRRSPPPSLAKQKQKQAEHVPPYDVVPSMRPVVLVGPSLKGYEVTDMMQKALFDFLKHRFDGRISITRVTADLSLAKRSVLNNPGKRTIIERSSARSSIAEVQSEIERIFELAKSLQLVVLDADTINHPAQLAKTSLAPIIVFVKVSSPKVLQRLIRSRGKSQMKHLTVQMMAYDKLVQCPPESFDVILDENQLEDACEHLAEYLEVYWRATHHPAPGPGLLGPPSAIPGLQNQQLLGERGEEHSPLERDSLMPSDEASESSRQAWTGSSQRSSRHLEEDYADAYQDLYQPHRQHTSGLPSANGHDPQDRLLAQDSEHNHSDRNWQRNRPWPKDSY

Compound	IC50
O=C(NOC1CCN(C(c2ccc(F)cc2)c2ccc(F)cc2)CC1)Nc1ccc(F)cc1 [Example 106, 1-(1-(Bis(4-fluorophenyl)methyl)piperidin-4-yloxy)-3-(4-fluorophenyl)urea]	2580 nM
O=C(NOC1CCN(S(=O)(=O)c2ccc(OC(F)(F)F)cc2)CC1)NC1CCC1 [Example 55, 1-Cyclobutyl-3-(1-(4-(trifluoromethoxy)phenylsulfonyl)piperidin-4-yloxy)urea]	290 nM
O=C(NCCC(F)(F)F)NOC1CCN(S(=O)(=O)c2ccc(OC(F)(F)F)cc2)CC1 [Example 67, 1-(1-(4-(Trifluoromethoxy)phenylsulfonyl)piperidin-4-yloxy)-3-(3,3,3-trifluoropropyl)urea]	1490 nM
O=C(NO[C@H]1CCN(S(=O)(=O)c2cccc(C(F)(F)F)c2)C1)Nc1cc(C(F)(F)F)cc(C(F)(F)F)c1 [Example 86, (S)-1-(3,5-Bis(trifluoromethyl)phenyl)-3-(1-(3-(trifluoromethyl)phenylsulfonyl)pyrrolidin-3-yloxy)urea]	705 nM

Continued, values first:

IC50	Compound
1220 nM	O=C(NO[C@H]1CCN(S(=O)(=O)c2cccc(C(F)(F)F)c2)C1)c1ccc(F)cc1 [Example 16, (S)-4-Fluoro-N-(1-(3-(trifluoromethyl)phenylsulfonyl)pyrrolidin-3-yloxy)benzamide]
575 nM	N#Cc1cccc(C(=O)NOC2CCN(S(=O)(=O)c3cccc(C(F)(F)F)c3)CC2)c1 [Example 7, 3-Cyano-N-(1-(3-(trifluoromethyl)phenylsulfonyl)piperidin-4-yloxy)benzamide]
218 nM	O=C(NOC1CCN(S(=O)(=O)c2cccc(C(F)(F)F)c2)CC1)C(c1ccccc1)c1ccccc1 [Example 9, 2,2-Diphenyl-N-(1-(3-(trifluoromethyl)phenylsulfonyl)piperidin-4-yloxy)acetamide]
102 nM	O=C(CCc1ccc(F)cc1)NOC1CCN(S(=O)(=O)c2cccc(C(F)(F)F)c2)CC1 [Example 5, 3-(4-Fluorophenyl)-N-(1-(3-(trifluoromethyl)phenylsulfonyl)piperidin-4-yloxy)propanamide]
560 nM	CN(C(=O)NOC1CCN(S(=O)(=O)c2cccc(C(F)(F)F)c2)CC1)c1ccc(F)cc1 [Example 32, 1-(4-Fluorophenyl)-1-methyl-3-(1-(3-(trifluoromethyl)phenylsulfonyl)piperidin-4-yloxy)urea]
154 nM	O=C(NCCOc1ccc(F)cc1)NOC1CCN(S(=O)(=O)c2cccc(C(F)(F)F)c2)CC1 [Example 31, 1-(2-(4-Fluorophenoxy)ethyl)-3-(1-(3-(trifluoromethyl)phenylsulfonyl)piperidin-4-yloxy)urea]
